The text below walks through data of patent US8569000B2, “Immunoassays using antibodies specific to carbamazepine” (priority 2011, dated 2013).

This experiment relates to antibody specific to carbamazepine. The experiment is described as follows: Interference from other drugs in the carbamazepine ELISA assay. In kind it is binding, rabbit. The settings on record: chemical tested at 10.0 μg/ml; procedures of Example 4 (ELISA); duplicate. From the text:
The Carbamazepine ELISA was developed with the antibody generated from Example 3. This assay is a competitive micro-immunoassay for determination of carbamazepine in a fluid sample. Carbamazepine in the fluid sample and carbamazepine derivative linked with the enzyme (HRP)-conjugate compete for the finite sites of the antibody coated on the solid surface of the microwell. If little or no carbamazepine is present in the fluid sample, more enzyme labeled carbamazepine derivative will bind to the antibody on the solid surface. Conversely, if a large or a significant amount of carbamazepine is present in the fluid sample, less enzyme labeled carbamazepine derivative will bind to the antibody, producing less color signal. The absorbance produced is inversely proportional to the amount of carbamazepine in the fluid sample.
Interference from other drugs was tested using 30 frequently used chemicals and medicines, at concentrations of 10.0 μg/ml.
The samples were tested in duplicate, following the procedures used in Example 4. All 30 samples produced a negative test result. Thus, the immunoassay of the present disclosure is specific to carbamazepine.
In general terms: In an ELISA, binding on a coated surface is turned into a signal by an enzyme label.

Where only a bound is given, the exact number is not on record here.

With `Cc1ccc(C)c(OCCCC(C)(C)C(=O)O)c1` [Gemfibrozil], the “Equivalent Carbamazepine Conc.” value is below 0.1 µg/mL. The result for Ecgonine reads below 0.1 µg/mL; that for `NCCc1ccccc1` [beta-Phenylethylamine], below 0.1 µg/mL. In the case of `CCN(CC)CC(=O)Nc1c(C)cccc1C` [Lidocaine] it was below 0.1 µg/mL. As to `CCC1(CCC(C)C)C(=O)NC(=O)NC1=O` [Amobarbital], the “Equivalent Carbamazepine Conc.” value was below 0.1 µg/mL.

Take `COc1ccc2cc([C@H](C)C(=O)O)ccc2c1` [Naproxen]: the “Equivalent Carbamazepine Conc.” value is below 0.1 µg/mL. In the case of `Cc1cc(CC(=O)O)n(C)c1C(=O)c1ccc(Cl)cc1` [Zomepirac] it was below 0.1 µg/mL. For `Cn1c(=O)c2c(ncn2C)n(C)c1=O` [Caffeine], the “Equivalent Carbamazepine Conc.” value was below 0.1 µg/mL. The result for `O=C(O)C1N=C(c2ccccc2)c2cc(Cl)ccc2NC1=O` (centres unmarked) [Clorazepate] reads below 0.1 µg/mL; that for `CN(C)CCCN1c2ccccc2CCc2ccccc21` [Imipramine], below 0.1 µg/mL; that for `CN[C@@H](C)[C@H](O)c1ccccc1` [(L)-Ephedrine], below 0.1 µg/mL.

As to `CC(=O)Oc1ccccc1C(=O)O` [Acetylsalicylic Acid], the “Equivalent Carbamazepine Conc.” value is below 0.1 µg/mL.

With Penicillin, the “Equivalent Carbamazepine Conc.” value was below 0.1 µg/mL. The result for `NC(=O)c1cccnc1` [Niacinamide] reads below 0.1 µg/mL; that for `COc1ccc2c3c1O[C@H]1C(=O)CC[C@H]4[C@@H](C2)N(C)CC[C@]314` [Hydrocodone], below 0.1 µg/mL; that for `CN[C@@H](C)Cc1ccccc1` [d-Methamphetamine], below 0.1 µg/mL. In the case of `O=C(O)c1cc(O)ccc1O` [Gentisic Acid] it was below 0.1 µg/mL. The result for `CC(C)Cc1ccc(C(C)C(=O)O)cc1` (centres unmarked) [Ibuprofen] reads below 0.1 µg/mL. As to `CNC[C@H](O)c1cccc(O)c1` [Phenylephrine], the “Equivalent Carbamazepine Conc.” value is below 0.1 µg/mL. In the case of `CN(C)CCCN1c2ccccc2Sc2ccc(Cl)cc21` [Chlorpromazine] it was below 0.1 µg/mL. The result for `CC(N)C(O)c1ccccc1` (centres unmarked) [Phenylpropanolamine] reads below 0.1 µg/mL; that for `CC(C(=O)O)c1cccc(Oc2ccccc2)c1` (centres unmarked) [Fenoprofen], below 0.1 µg/mL; that for `C=C[C@H]1C[N@@]2CC[C@H]1C[C@@H]2[C@@H](O)c1ccnc2ccc(OC)cc12` [Quinidine], below 0.1 µg/mL. As to `CC1(C)S[C@@H]2[C@H](NC(=O)[C@H](N)c3ccccc3)C(=O)N2[C@H]1C(=O)O` [Ampicillin], the “Equivalent Carbamazepine Conc.” value is below 0.1 µg/mL. Take `COC(=O)[C@@H]1[C@H]2CC[C@@H](C[C@@H]1O)N2C` [Ecgonine Methyl Ester]: the “Equivalent Carbamazepine Conc.” value was below 0.1 µg/mL. The result for `CCN(CC)CCNC(=O)c1ccc(N)cc1` [Procainamide] reads below 0.1 µg/mL; that for `CCN(CC)CCOC(=O)c1ccc(N)cc1` [Procaine], below 0.1 µg/mL; that for `CN1C(=O)CC[C@H]1c1cccnc1` [(−)-Cotinine], below 0.1 µg/mL. The result for `CN1C(=O)CN=C(c2ccccc2)c2cc(Cl)ccc21` [Diazepam] reads below 0.1 µg/mL.
